Measurements from the supplement of paper PMC6315032.

Key:
Assay in all cases: apparent dissociation constant (pKDapp, Kinobeads competition, Cheng-Prusoff corrected) (-log10 M); higher = tighter binding
ACVR2B = ACVR2B (UniProt Q13705); settings: affinity matrix / lysate: Kinobeads, mixed HEK293/K-562/placenta lysate
TAOK3 = TAOK3 (UniProt Q9H2K8); settings: affinity matrix / lysate: Kinobeads, mixed HEK293/K-562/placenta lysate
FGFR2 = FGFR2 (UniProt P21802); settings: affinity matrix / lysate: Kinobeads, mixed HEK293/K-562/placenta lysate
ITK = ITK (UniProt Q08881); settings: affinity matrix / lysate: Kinobeads, mixed HEK293/K-562/placenta lysate
TBK1 = TBK1 (UniProt Q9UHD2); settings: affinity matrix / lysate: Kinobeads, mixed HEK293/K-562/placenta lysate
KIAA0999 = KIAA0999 (UniProt Q9Y2K2); settings: affinity matrix / lysate: Kinobeads, mixed HEK293/K-562/placenta lysate
EPHA5 = EPHA5 (UniProt P54756); settings: affinity matrix / lysate: Kinobeads, mixed HEK293/K-562/placenta lysate
CSNK1A1 = CSNK1A1 (UniProt P48729); settings: affinity matrix / lysate: Kinobeads, mixed HEK293/K-562/placenta lysate
ILK = ILK (UniProt Q13418); settings: affinity matrix / lysate: Kinobeads, mixed HEK293/K-562/placenta lysate
STK11 = STK11 (UniProt Q15831); settings: affinity matrix / lysate: Kinobeads, mixed HEK293/K-562/placenta lysate
BMPR1B = BMPR1B (UniProt O00238); settings: affinity matrix / lysate: Kinobeads, mixed HEK293/K-562/placenta lysate
MAP3K3 = MAP3K3 (UniProt Q99759); settings: affinity matrix / lysate: Kinobeads, mixed HEK293/K-562/placenta lysate
MAP2K6 = MAP2K6 (UniProt P52564); settings: affinity matrix / lysate: Kinobeads, mixed HEK293/K-562/placenta lysate
RPS6KA6 = RPS6KA6 (UniProt Q9UK32); settings: affinity matrix / lysate: Kinobeads, mixed HEK293/K-562/placenta lysate
TEK = TEK (UniProt Q02763); settings: affinity matrix / lysate: Kinobeads, mixed HEK293/K-562/placenta lysate
KSR1 = KSR1 (UniProt Q8IVT5); settings: affinity matrix / lysate: Kinobeads, mixed HEK293/K-562/placenta lysate
BTK = BTK (UniProt Q06187); settings: affinity matrix / lysate: Kinobeads, mixed HEK293/K-562/placenta lysate
MAP3K2 = MAP3K2 (UniProt Q9Y2U5); settings: affinity matrix / lysate: Kinobeads, mixed HEK293/K-562/placenta lysate
PIP4K2A = PIP4K2A (UniProt P48426); settings: affinity matrix / lysate: Kinobeads, mixed HEK293/K-562/placenta lysate
EPHA4 = EPHA4 (UniProt P54764); settings: affinity matrix / lysate: Kinobeads, mixed HEK293/K-562/placenta lysate
MAP4K5 = MAP4K5 (UniProt Q9Y4K4); settings: affinity matrix / lysate: Kinobeads, mixed HEK293/K-562/placenta lysate
EPHA6 = EPHA6 (UniProt Q9UF33); settings: affinity matrix / lysate: Kinobeads, mixed HEK293/K-562/placenta lysate
MAPK8 = MAPK8 (UniProt P45983); settings: affinity matrix / lysate: Kinobeads, mixed HEK293/K-562/placenta lysate
AXL = AXL (UniProt P30530); settings: affinity matrix / lysate: Kinobeads, mixed HEK293/K-562/placenta lysate
STK17A = STK17A (UniProt Q9UEE5); settings: affinity matrix / lysate: Kinobeads, mixed HEK293/K-562/placenta lysate
DAPK1 = DAPK1 (UniProt P53355); settings: affinity matrix / lysate: Kinobeads, mixed HEK293/K-562/placenta lysate
BRSK1 = BRSK1 (UniProt Q8TDC3); settings: affinity matrix / lysate: Kinobeads, mixed HEK293/K-562/placenta lysate
STK33 = STK33 (UniProt Q9BYT3); settings: affinity matrix / lysate: Kinobeads, mixed HEK293/K-562/placenta lysate
PIK3CG = PIK3CG (UniProt P48736); settings: affinity matrix / lysate: Lipid Kinobeads, mixed HeLa/Jurkat/K-562 lysate
MAP4K4 = MAP4K4 (UniProt O95819); settings: affinity matrix / lysate: Kinobeads, mixed HEK293/K-562/placenta lysate
FGFR3 = FGFR3 (UniProt P22607); settings: affinity matrix / lysate: Kinobeads, mixed HEK293/K-562/placenta lysate
EPHB1 = EPHB1 (UniProt P54762); settings: affinity matrix / lysate: Kinobeads, mixed HEK293/K-562/placenta lysate
IRAK1 = IRAK1 (UniProt P51617); settings: affinity matrix / lysate: Kinobeads, mixed HEK293/K-562/placenta lysate

Measured: apparent dissociation constant (-log10 M)

EPHA6, sequence (Q9UF33 whole entry): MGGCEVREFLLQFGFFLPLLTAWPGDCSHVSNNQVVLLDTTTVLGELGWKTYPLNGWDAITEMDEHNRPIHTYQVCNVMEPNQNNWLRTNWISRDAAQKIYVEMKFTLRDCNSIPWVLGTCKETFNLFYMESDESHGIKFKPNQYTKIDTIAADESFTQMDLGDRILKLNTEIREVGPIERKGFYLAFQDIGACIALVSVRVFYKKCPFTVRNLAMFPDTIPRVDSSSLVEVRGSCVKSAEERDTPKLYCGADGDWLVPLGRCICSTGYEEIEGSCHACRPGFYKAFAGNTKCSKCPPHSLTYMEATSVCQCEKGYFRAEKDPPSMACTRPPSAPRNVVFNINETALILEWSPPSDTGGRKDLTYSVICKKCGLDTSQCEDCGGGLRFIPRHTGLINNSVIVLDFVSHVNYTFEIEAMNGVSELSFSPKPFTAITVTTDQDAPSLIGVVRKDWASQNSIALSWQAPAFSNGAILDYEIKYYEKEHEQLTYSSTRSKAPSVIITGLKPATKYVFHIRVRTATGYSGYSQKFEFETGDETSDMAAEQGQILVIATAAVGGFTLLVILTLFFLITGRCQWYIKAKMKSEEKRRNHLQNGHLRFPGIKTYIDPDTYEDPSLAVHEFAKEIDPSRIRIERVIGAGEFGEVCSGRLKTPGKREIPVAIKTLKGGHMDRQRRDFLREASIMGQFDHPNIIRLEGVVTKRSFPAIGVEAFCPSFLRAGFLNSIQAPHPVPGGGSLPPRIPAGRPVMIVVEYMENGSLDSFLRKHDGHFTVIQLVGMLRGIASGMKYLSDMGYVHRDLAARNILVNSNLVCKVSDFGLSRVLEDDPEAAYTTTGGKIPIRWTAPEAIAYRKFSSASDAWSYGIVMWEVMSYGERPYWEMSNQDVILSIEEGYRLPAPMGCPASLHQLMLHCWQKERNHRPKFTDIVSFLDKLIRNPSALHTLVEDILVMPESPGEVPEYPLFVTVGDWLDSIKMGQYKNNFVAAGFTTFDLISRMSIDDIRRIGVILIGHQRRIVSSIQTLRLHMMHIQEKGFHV
EPHA5, sequence (P54756 whole entry): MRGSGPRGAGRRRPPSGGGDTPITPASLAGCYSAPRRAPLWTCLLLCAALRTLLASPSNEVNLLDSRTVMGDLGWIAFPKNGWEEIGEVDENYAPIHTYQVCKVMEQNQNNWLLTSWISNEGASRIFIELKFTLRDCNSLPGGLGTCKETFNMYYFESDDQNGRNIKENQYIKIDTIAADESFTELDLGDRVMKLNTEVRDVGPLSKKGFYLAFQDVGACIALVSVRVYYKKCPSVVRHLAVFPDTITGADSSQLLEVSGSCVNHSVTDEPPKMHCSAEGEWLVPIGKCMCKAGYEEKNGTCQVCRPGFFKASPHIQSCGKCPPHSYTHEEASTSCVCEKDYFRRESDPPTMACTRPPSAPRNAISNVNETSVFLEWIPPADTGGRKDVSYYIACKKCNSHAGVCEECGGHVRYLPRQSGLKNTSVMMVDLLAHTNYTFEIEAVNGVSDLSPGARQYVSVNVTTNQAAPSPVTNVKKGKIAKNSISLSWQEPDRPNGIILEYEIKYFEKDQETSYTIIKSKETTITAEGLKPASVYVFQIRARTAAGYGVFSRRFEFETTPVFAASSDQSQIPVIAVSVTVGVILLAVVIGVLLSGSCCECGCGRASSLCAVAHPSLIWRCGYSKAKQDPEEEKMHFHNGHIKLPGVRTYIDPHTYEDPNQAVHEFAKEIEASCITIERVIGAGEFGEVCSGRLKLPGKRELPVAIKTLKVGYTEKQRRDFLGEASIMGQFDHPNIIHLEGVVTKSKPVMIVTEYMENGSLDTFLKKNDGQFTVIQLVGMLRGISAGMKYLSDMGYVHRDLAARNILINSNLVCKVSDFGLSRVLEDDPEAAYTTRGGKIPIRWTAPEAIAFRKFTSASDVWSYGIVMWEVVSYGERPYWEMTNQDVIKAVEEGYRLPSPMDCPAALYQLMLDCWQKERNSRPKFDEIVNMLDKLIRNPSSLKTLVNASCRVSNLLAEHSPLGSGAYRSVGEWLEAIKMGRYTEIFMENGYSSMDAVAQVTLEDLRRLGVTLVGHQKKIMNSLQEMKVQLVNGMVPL
IRAK1, sequence (P51617 whole entry, looked up): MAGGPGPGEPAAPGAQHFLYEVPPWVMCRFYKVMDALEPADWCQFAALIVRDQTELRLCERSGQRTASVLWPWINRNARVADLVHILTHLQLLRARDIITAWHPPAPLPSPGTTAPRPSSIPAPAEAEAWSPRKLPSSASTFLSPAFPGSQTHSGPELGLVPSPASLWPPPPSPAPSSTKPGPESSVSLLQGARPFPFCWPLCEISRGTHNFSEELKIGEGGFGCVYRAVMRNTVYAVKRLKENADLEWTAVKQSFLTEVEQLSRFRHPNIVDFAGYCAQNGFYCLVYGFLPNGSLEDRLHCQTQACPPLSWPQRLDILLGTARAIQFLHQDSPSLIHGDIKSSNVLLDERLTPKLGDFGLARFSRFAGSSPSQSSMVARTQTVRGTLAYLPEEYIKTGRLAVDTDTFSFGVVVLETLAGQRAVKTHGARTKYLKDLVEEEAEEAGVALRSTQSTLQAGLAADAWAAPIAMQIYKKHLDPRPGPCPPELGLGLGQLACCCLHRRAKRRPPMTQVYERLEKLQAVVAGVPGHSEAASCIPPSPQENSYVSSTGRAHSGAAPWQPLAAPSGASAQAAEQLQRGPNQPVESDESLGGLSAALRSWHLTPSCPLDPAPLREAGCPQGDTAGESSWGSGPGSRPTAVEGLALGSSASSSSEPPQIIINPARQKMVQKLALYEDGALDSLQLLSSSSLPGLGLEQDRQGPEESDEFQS
DAPK1, sequence (P53355 whole entry, looked up): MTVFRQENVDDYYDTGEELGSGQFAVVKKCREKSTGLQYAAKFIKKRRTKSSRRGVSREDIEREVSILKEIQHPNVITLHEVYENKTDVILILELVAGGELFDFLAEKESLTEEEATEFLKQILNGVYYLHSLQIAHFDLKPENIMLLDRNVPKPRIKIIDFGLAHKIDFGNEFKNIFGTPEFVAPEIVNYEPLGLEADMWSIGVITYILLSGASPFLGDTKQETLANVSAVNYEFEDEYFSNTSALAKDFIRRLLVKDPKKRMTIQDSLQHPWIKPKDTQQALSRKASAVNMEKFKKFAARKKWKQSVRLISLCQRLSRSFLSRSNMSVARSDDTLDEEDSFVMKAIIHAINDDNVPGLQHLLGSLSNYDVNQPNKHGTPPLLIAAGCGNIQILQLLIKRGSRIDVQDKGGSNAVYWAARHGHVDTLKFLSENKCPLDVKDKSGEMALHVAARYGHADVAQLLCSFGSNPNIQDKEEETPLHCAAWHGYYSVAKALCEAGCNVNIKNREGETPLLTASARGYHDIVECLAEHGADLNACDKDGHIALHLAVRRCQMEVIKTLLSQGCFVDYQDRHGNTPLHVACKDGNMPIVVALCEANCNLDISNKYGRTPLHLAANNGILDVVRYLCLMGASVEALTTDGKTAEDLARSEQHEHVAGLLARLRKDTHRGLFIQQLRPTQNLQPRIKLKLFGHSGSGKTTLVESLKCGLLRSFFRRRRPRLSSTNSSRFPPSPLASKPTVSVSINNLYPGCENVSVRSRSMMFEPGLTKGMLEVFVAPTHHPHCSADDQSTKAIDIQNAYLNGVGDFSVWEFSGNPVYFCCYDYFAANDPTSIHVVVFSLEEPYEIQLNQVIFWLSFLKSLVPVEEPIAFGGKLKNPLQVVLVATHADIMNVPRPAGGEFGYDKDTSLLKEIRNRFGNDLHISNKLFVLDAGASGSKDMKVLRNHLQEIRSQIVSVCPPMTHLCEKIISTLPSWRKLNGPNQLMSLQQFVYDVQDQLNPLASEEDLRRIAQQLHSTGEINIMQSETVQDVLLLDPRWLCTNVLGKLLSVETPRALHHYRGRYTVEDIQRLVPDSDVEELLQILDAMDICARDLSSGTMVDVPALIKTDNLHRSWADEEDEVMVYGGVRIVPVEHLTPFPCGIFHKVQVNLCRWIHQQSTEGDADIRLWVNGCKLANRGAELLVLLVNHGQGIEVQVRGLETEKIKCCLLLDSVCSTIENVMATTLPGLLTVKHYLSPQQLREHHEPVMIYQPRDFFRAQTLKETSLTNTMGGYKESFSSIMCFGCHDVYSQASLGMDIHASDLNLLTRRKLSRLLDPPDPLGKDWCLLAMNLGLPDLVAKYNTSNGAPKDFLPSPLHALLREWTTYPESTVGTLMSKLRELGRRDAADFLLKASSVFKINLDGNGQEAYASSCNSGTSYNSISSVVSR
AXL, sequence (P30530 whole entry): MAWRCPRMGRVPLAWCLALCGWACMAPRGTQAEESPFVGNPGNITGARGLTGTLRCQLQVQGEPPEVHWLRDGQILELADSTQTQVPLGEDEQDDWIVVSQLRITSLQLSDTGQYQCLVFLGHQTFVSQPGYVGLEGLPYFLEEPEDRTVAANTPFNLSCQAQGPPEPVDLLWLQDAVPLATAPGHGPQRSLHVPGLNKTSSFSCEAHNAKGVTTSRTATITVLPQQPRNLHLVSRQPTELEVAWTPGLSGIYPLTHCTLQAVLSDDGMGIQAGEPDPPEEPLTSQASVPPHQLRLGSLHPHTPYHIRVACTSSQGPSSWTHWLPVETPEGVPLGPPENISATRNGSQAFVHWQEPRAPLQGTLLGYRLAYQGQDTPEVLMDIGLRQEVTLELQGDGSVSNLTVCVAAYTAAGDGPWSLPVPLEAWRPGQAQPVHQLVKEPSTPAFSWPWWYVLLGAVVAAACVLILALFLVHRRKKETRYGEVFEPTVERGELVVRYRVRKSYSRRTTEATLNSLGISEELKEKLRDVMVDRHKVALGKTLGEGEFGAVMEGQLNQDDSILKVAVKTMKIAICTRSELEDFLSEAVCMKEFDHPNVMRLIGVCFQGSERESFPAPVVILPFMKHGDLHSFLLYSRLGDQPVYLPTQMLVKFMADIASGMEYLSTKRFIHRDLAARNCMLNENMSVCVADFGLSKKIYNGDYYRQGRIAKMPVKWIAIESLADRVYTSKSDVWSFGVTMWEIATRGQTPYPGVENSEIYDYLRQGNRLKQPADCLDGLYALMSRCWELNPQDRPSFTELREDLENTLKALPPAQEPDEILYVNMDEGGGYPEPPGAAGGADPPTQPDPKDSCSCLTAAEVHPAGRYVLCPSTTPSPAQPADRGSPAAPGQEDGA

COc1ccc(-c2ccc3c(N4CCOC[C@@H]4C)nc(N4CCOC[C@@H]4C)nc3n2)cc1CO [AZD8055]
< 6: all assays above

CCNC(=O)Nc1ccc(-c2nc(N3CCOC[C@@H]3C)c3c(n2)C(C)(C)S(=O)(=O)C3)cc1 [CZ415]
< 6: all assays above
